Results taken from article PMC11452294, “Periplasmic binding proteins Bug69 and Bug27 from Bordetella pertussis are in vitro high‐affinity quinolinate binders with a potential role in NAD biosynthesis” (FEBS Open Bio, 2024).

Key:
[1] = target: T1, Bug69 (Bordetella pertussis, UniProt Q7VUA0); test: intrinsic tryptophan fluorescence quenching titration; format: binding; conditions: 20 °C; 0.1 μM protein; excitation 295 nm, fit at 328 nm
T1 construct: gene BP3219; mature periplasmic domain, signal peptide omitted, pET28c NcoI/XhoI, C-terminal His tag kept; E. coli BL21(DE3); denatured and renatured to remove endogenous ligands
T1 sequence (Q7VUA0 32-332): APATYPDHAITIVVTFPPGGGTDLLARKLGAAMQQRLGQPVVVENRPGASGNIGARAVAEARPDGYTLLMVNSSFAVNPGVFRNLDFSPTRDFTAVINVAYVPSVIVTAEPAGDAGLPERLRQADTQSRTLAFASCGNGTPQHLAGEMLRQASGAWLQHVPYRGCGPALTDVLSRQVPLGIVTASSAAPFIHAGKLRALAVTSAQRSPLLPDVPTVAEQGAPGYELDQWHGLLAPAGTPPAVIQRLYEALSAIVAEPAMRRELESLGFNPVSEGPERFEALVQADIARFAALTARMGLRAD

[2] = target: T2, Bug27 (Bordetella pertussis, UniProt Q7W019); test: as above; format: binding
T2 construct: gene BP0682; mature periplasmic domain, signal peptide omitted, pET28c NcoI/HindIII, C-terminal His tag kept; E. coli BL21(DE3); denatured and renatured to remove endogenous ligands
T2 sequence (Q7W019 30-330): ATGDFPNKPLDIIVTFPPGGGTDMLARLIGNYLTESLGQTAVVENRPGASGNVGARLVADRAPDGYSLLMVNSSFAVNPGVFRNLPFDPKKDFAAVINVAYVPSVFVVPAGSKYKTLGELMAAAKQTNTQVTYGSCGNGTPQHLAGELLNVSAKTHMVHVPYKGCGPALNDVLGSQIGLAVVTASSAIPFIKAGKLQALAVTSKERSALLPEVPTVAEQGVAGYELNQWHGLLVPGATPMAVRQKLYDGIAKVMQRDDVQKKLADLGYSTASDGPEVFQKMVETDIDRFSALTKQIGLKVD

With O=C(O)c1cccnc1C(=O)O [quinolinate] the Kd [1] was 70 ± 22 nM and the Kd [2] was 136 ± 28 nM.
